Source: patent publication US6815450B2, “Axon regeneration with PKC inhibitors” (Children's Medical Center Corporation, priority 2002, dated 2004)

Tests used:
[1] = test system: CGNs on MAG, Nogo-A and OMgp; assay: neurite outgrowth on individual myelin inhibitors; format: cell-based, rat
Description: […] Based on their structure and substrate requirements, PKC isoforms can be divided into three classes: the Ca++ and second messenger diacylglycerol (DAG)-sensitive conventional PKCs (-α, -β, and -γ), the Ca++-independent but DAG-dependent novel PKCs (-δ, -ε, -η, -θ, and -μ), and the Ca++- and DAG-insensitive atypical PKCs (-ζ and -λ). […] These inhibitors included Chelerythrine, Calphostin, Bisindoleylmaleimide I, and Gö6976. Dose response experiments (in the range of 10 nM to 10 uM) were carried out for each PKC inhibitor.

[2] = test system: dorsal column ascending axons; assay: dorsal column axonal regeneration after C3-4 spinal dorsal hemisection; format: in vivo, adult rats
Description: To assess the contribution of PKC mediated inhibitory effects on axon regeneration in vivo, we examined whether intrathecal infusion of Gö6976 affected regeneration of dorsal column ascending axons following spinal cord dorsal hemisection in adult rats. The hemisection was performed between the 3rd and 4th cervical spinal segments (C3-4) to a depth of 1.6 mm from the dorsal surface of the cord using a VibraKnife device that can be used to precisely control the lesion depth stereotaxically. To ensure that bilateral dorsal columns were completely transected, the lesion was advanced ventrally to the level of central cannel resulting in the transection of the entire dorsal half of the spinal cord. After the lesion, dura mater was sutured to restore cerebespinal fluid circulation and to prevent connective tissue invasion. Intrathecal delivery of Gö6976 (20 uM) or saline vesicle into the lesion site was achieved by constant infusion of the compound at a rate of 0.5 ul/hr for 14 days using an Alzet mini-osmotic pump (Model 2002). Five weeks after surgery, a narrow lesion gap through the dorsal half of the cord was clearly seen, confirming the completeness of dorsal column transection. […] Anatomical regeneration of injured dorsal column axons was assessed by anterograde tracing of Cholera toxin B subunit (CTB) which was injected into bilateral sciatic nerves and brachial plexuses.

RhoA = RhoA pull down assay in stimulated CGNs; format: cell-based, rat; conditions: cultured CGNs
Description: We also assessed whether individual inhibitors affect endogenous PKC activity in treated neurons. […] To further confirm the role of PKC as a direct signaling mediator, we examined whether PKC activation by myelin inhibitors is dependent on NgR, a required receptor component for all of the three major myelin inhibitors. Thus, we used recombinant retroviruses to overexpress full-length or dominant negative NgR in CGNs and examined PKC activation in these transduced neurons by NgR ligands. […] An additional and critical signaling event shared by these inhibitory activities is the activation of the small GTPase RhoA. In order to determine the relationship between PKC and RhoA in these pathways, we stimulated cultured CGNs with MAG-Fc, AP-Nogo-66 or CSPG in the presence or absence of Gö6976 and examined the RhoA activation in these conditions by subjecting the resulting cell lysates to a RhoA pull down assay. […] Thus, conventional PKCs participate in transducing the inhibitory signals of both myelin inhibitors and CSPG from their specific cell surface receptors to activate RhoA.

[3] = test system: CGNs, DRG sensory neurons or NG108 cells on immobilized CNS myelin; assay: neurite outgrowth assay on CNS myelin substrate; format: cell-based, rat
Description: To assess the functional relevance of the activation of the PI3K, MEK and PLC-g pathways, we utilized a standard neurite outgrowth assay in which NG108 cells or cerebellar granule neurons (CGN) from postnatal day 7-9 (P7-9) rats were grown on immobilized recombinant MAG or myelin (5-10, 16). Pharmacological inhibitors of the individual pathways—LY294002 and wortmannin for PI3K, U0126 for MEK, and U73122 for PLC-g, were then added to assess whether and to what extent these inhibitors could overcome the inhibitory activity of MAG or of myelin. […] As MEK has been previously shown to be required for axon growth induced by chronic exposure to neurotrophins (14), but not for growth cone turning in acute responses to NGF gradients (12), our results of abolishing MAG inhibition by an MEK inhibitor imply that the MEK pathway can be required only for neurite outgrowth in response to external cues.
Based on the modulation of neurite outgrowth by modulating PKC activity, we predicted that inhibiting PKC activity might abolish or convert the inhibitory responses of neurons to MAG and other myelin-associated inhibitors. […] Based on existing evidence for the functional interactions between the PKA and PKC pathways (24), we conclude that both PKA and PKC act through parallel mechanisms in affecting neurite outgrowth. Although many PKC isoforms are expressed in the nervous system (25), our observations with phorbol ester and selective PKC inhibitors indicate the involvement of at least classical PKC isoforms whose activation is dependent on diacylglycerol (DAG) and calcium (24).
Screening for compounds that allow neurite outgrowth from postnatal day 7-9 rat cerebellar granule neurons (CGNs) on CNS myelin substrates, we identified several broad-specificity PKC inhibitors from a small molecule libraries. Based on their structure and substrate requirements, PKC isoforms can be divided into three classes: the Ca++ and second messenger diacylglycerol (DAG)-sensitive conventional PKCs (-α, -β, and -γ), the Ca++-independent but DAG-dependent novel PKCs (-δ, -ε, -η, -θ, and -μ), and the Ca++- and DAG-insensitive atypical PKCs (-ζ and -λ). We first examined PKC inhibitors with a higher specificity for the conventional class of PKC isotypes for their ability to promote neurite outgrowth on CNS myelin. These inhibitors included Chelerythrine, Calphostin, Bisindoleylmaleimide I, and Gö6976. Dose response experiments (in the range of 10 nM to 10 uM) were carried out for each PKC inhibitor.

[4] = test system: P7 rat CGNs injected into the ventral funiculus of the adult rat spinal cord; assay: intra white matter transplantation of CGNs; format: in vivo; conditions: two weeks after transplantation; CGNs pretreated with 50 nM
Description: We thus injected vehicle or Gö6976-treated P7 rat CGNs into the ventral funiculus of the adult rat spinal cord and examined neurite outgrowth of these transplanted neurons within the white matter that is largely composed of myelinated axons (26).
26. Intra white matter transplantation of CGNs. P7 CGN (50,000 cells/ml) were prelabeled with Cell Tracker CM-DiI (1 mM; Molecular Probes, Eugene, Oreg.), pretreated with PBS or 50 nM Gö6976, and microinjected at the level of T9 into the spinal cord ventral funiculus of adult Sprague-Dawley rats ([…]; N=3 for each group). Two pieces of 2 mm^3 gelfoam (Pharmacia & Upjohn, Kalamazoo, Mich.) soaked with PBS or 500 nM Gö6976 were placed onto the spinal dura where the penetration for cell injection occurred. Spinal cords (8 mm in length centered around the CGN injection site) were collected 2 weeks after surgery, and […] sagittal sections were made. DiI positive CGNs were examined with a fluorescent microscope (Omega XF-32 optical filter) in all sections of each cord to evaluate cell survival (27). Percentages of the neurite-bearing CGNs and CGNs with neurites longer than twice the soma length were quantified among 400 CGNs from a single […] of each cord that had the highest number of neurite-bearing CGNs.

Cn1c2ccccc2c2c3c(c4c5ccccc5n(CCC#N)c4c21)CNC3=O [Gö6976]
neurite outgrowth inhibition induced by MAG, Nogo-A and OMgp [1]: efficiently overcame neurite outgrowth inhibition
regeneration of CTB-labeled dorsal column axons across the lesion ([2]; 20 uM intrathecal, 0.5 ul/hr for 14 days, five weeks after surgery): CTB-labeled axons were seen to cross the lesion gap and grow within the distal host spinal cord for a considerable distance
distance distal to the injury at which many regenerated axons ended ([2]; 20 uM intrathecal, 0.5 ul/hr for 14 days, longest distance examined): 7 mm
functional connections and recovery ([2]; subsequent studies): improves physiological and behavioral recovery
MAG-Fc, AP-Nogo-66 and CSPG induced RhoA activation (RhoA): blocked MAG-Fc, AP-Nogo-66 and CSPG induced RhoA activation in a dose dependent manner
neurite outgrowth on immobilized CNS myelin ([3]; P7-9 rat CGNs and DRG sensory neurons): profoundly affected neurite outgrowth by enhancing both the number of neurite-bearing cells and the length of neurites
neurite outgrowth on a CNS myelin substrate ([3]; P7-9 rat CGNs, 100 nM): profoundly mitigated outgrowth inhibition and promoted significant neurite outgrowth
donor neurons bearing neurites [4]: 85%
neurite-bearing neurons with neurites longer than twice their soma diameters [4]: 80%
